Measured values taken from patent publication US8829200B2, “Benzimidazole inhibitors of leukotriene production” (Boehringer Ingelheim International GmbH, priority 2010, dated 2014).

Experiments:
[1] = test system: biomarkers for myocardial infarction risk; conditions: clinical trial; cited from earlier work
[2] = molecular target: recombinant human FLAP protein (Homo sapiens (Human), UniProt P20292); assay: FLAP binding assay (Scintillation Proximity Assay); conditions: displacement of [125I]L-691,831, membranes of sf9 cells expressing human FLAP; read-out: SPA IC50
Chain of recombinant human FLAP protein (P20292 whole entry): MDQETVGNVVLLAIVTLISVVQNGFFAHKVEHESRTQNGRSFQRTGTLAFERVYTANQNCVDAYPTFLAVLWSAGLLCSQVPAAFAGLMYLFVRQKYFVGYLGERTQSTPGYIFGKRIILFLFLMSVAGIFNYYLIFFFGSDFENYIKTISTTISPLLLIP
Description: Compounds are assessed for the ability to bind to FLAP in a binding assay that measures compound-specific displacement of an iodinated (^125I) FLAP inhibitor via a Scintillation Proximity Assay format (adapted from S. Charleson et al., Mol. Pharmacol., 1992, 41, 873-879).
Cell pellets produced from sf9 insect cells expressing recombinant human FLAP protein are resuspended in buffer A [15 mM Tris-HCl (pH 7.5), 2 mM MgCl2, 0.3 mM EDTA, 1 mM PMSF]. The cells are lysed with a Dounce homogenizer and the material is centrifuged at 10,000×g for 10 minutes. The supernatant is then collected and centrifuged at 100,000×g for 60 minutes. To prepare membrane protein for an assay, an aliquot of the 100,000×g pellet is resuspended in 1 ml of buffer A, Dounce homogenized, and finally subjected to polytron mixing (30 seconds). Membrane protein (25 μl, 5 μg) is mixed with WGA SPA beads (Amersham) and stirred for 1 h. To an assay plate (Perkin Elmer FlexiPlate) is added 25 μl of test compound prepared in Binding buffer [100 mM Tris (pH 7.5), 140 mM NaCl, 5% glycerol, 2 mM EDTA, 0.5 mM TCEP, 0.05% Tween 20], 25 μl of [^125I]L-691,831 (an iodinated analog of MK-591, Charleson et al. Mol. Pharmacol., 41, 873-879, 1992) and finally 50 μl of the bead/protein mixture. (final concentrations: beads, 200 μg/well; protein, 5 μg/well; [^125I] probe, 0.08 nM/well (17 nCi/well). The plates are shaken for 2 h before reading on a Microbeta plate reader. Non-specific binding is determined by the addition of 10 μM cold L-691,831 compound.

[3] = test system: synthesis of LTB4 in human whole blood; assay: human whole blood LTB4 production inhibition assay; format: cell-based; conditions: heparinized human whole blood, calcimycin-stimulated, plasma LTB4; read-out: hWB IC50
Description: Compounds are additionally tested in a human whole blood assay to determine their ability to inhibit the synthesis of LTB4 in a cellular system. Compounds are combined with heparinized human whole blood and incubated for 15 minutes at 37° C. Calcimycin ([…], prepared in phosphate-buffered saline, pH 7.4) is then added and the mixture is incubated for another 30 minutes at 37° C. The samples are centrifuged for 5 min at low speed (1500×g) and the plasma layer is removed. Plasma LTB4 concentrations are then measured using an antibody-based homogenous time-resolved fluorescence method (CisBio, Bedford, Mass.).

human glomerulonephritis = conditions: clinical trial; cited from earlier work
[4] = test system: apoE/LDL-R double knockout mice; conditions: oral dosing, high-fat diet from 2 months of age to 6 months; cited from earlier work
ApoE−/−xCD4dnTβRII mice = conditions: administration via infusion, treated for four weeks; cited from earlier work

| IC50 [2] [nM] | IC50 [3] [nM] | SMILES | further results |
| --- | --- | --- | --- |
| – | – | O=C(O)[C@@H](c1ccc(OCc2ccc3ccccc3n2)cc1)C1CCCC1 [DG-031] | effect on biomarkers for myocardial infarction risk [1]: dose-dependent suppression of several biomarkers |
| 34.6 | 4900 | CC(C)NC(=O)c1ccccc1-c1nc2cc(-c3cnc(N)nc3)ccc2n1C(C)(C)C [Example 26, 2-[5-(2-Amino-pyrimidin-5-yl)-1-tert-butyl-1H-benzoimidazol-2-yl]-N-isopropyl-benzamide] | – |
| 520 | > 5000 | CC(C)(C)n1c(-c2ccccc2C(=O)N2CCOCC2)nc2cc(-c3cnc(N)nc3)ccc21 [Example 28, {2-[5-(2-Amino-pyrimidin-5-yl)-1-tert-butyl-1H-benzoimidazol-2-yl]-phenyl}-morpholin-4-yl-methanone] | – |
| 200 | 3050 | CN(C)C(=O)c1ccccc1-c1nc2cc(-c3cnc(N)nc3)ccc2n1C(C)(C)C [Example 29, 2-[5-(2-Amino-pyrimidin-5-yl)-1-tert-butyl-1H-benzoimidazol-2-yl]-N,N-dimethyl-benzamide] | – |
| 20 | 3080 | CNC(=O)c1cc(F)ccc1-c1nc2cc(-c3cnc(N)nc3)ccc2n1C(C)(C)C [Example 33, 2-[5-(2-Amino-pyrimidin-5-yl)-1-tert-butyl-1H-benzoimidazol-2-yl]-5-fluoro-N-methyl-benzamide] | – |
| 15.8 | 906 | CNC(=O)c1cccc(F)c1-c1nc2cc(-c3cnc(N)nc3)ccc2n1C(C)(C)C [Example 34, 2-[5-(2-Amino-pyrimidin-5-yl)-1-tert-butyl-1H-benzoimidazol-2-yl]-3-fluoro-N-methyl-benzamide] | – |
| – | – | CC(C)(C)Sc1c(CC(C)(C)C(=O)O)n(Cc2ccc(Cl)cc2)c2ccc(OCc3ccc4ccccc4n3)cc12 [MK-591] | effect on proteinuria (human glomerulonephritis): reduce proteinuria |
| – | – | CC(C)c1ccc2c(c1)c(SC(C)(C)C)c(CC(C)(C)C(=O)O)n2Cc1ccc(Cl)cc1 [MK-886] | decrease in plaque coverage in the aorta [4]: 56%; decrease in plaque coverage in the aortic root [4]: 43%; decrease in plaque area in the aortic root (ApoE−/−xCD4dnTβRII mice): ~40% |
